Where no end group is shown, it is not given here.
Experiments:
UFC1 [1] = biological target: T1, UFC1 (Homo sapiens, UniProt Q9Y3C8); assay: In vitro thioester formation (ufmylation) assay, UFC1~UFM1 conjugate; assay type: biochemical; conditions: high concentration of GABARAPL2 added to ufmylation assay
T1 construct: Full length UFC1, residues 1–167; modified ubiquitin tag (Ub19) with TEV site (N, cleaved yes); made in house; host or cells: E. coli T7 Express
T1 sequence (Q9Y3C8 1-167): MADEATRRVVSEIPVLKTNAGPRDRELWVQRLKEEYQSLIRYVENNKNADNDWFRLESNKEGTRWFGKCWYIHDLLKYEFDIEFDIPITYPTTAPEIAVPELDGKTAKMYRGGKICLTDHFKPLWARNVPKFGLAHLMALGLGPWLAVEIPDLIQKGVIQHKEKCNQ
Protocol: First, we analyzed the effect of the UBA5 C-terminus on UFM1 transfer to UFC1 with an in vitro thioester formation assay (Figure 1B–E).
Ufmylation reaction assays were adopted from work of Xie. Briefly, 70 µM UFM1, 20 µM UFC1 and 20 µM of different UBA5 constructs were mixed in reaction buffer (50 mM HEPES pH = 7.5, 100 mM NaCl, 5 mM MgCl2). After starting the reaction with addition of 1 mM ATP, the reaction mix was incubated at 22 °C for the desired time. To quench the reaction and prepare electrophoretic samples, 1 µL of the reaction mix was added to 99 µL 1x non-reducing SDS loading buffer and frozen in liquid nitrogen. Sample content was visualized by sodium dodecyl sulfate polyacrylamide gel electrophoresis (SDS-PAGE). The transfer to polyvinylidene difluoride (PVDF) membrane was performed via a Trans-Blot® Turbo™ Transfer System (Bio-Rad, München, Germany). After transfer the membrane was blocked with TBST (Tris-buffered saline with Tween20 buffer, 20 mM Tris, 150 mM NaCl and 0.1% TWEEN 20) containing 5% w/v nonfat dry milk for 1 h, followed by α-UFC1 antibody incubation over night at 4 °C (ab189251 abcam, 1:10,000 in TBST containing 5% w/v nonfat dry milk). After washing with TBST the membrane was incubated with secondary antibody (anti-rabbit-HRP) for 1 h at RT and again washed with TBST. Detection was performed by addition of ECL solution. For quantification of UFC1 ufmylation coloc2 software implemented in ImageJ was used.

UFC1 [2] = biological target: T1, UFC1; assay: ITC, UBA5 constructs vs UFC1; assay type: binding; conditions: ITC, VP-ITC, 25 °C; peptide ~400 µM titrated into 20–25 µM UFC1; 25 mM HEPES pH 7.5, 100 mM NaCl; one-site model; single ITC profile
Text: To understand how the UBA5 C-terminus participates in the ufmylation cascade, we performed isothermal titration calorimetry (ITC) experiments, in which we titrated UBA5 C-terminal peptides (see Table 1) to the UBA5 AD, UFC1, UFM1 and representative LC3/GABARAP proteins (Figure 2A, Supplementary Figure S2A–D and Table 2).
To investigate if conjugation of UFM1 to the UBA5 catalytic cysteine (C250) affects the UFC1:UBA5 interactions, we prepared full length UBA5 C250K mutant and stably conjugated UFM1 to it as reported before for a number of ubiquitin-specific E2 enzymes. We compared the UFC1 spectra after addition of a twofold molar excess of FL^1–404 and FL^1–404 C250K~UFM1 constructs (Supplementary Figure S5C).
All proteins and peptides were expressed in E.Coli T7 Express (New England Biolabs GmbH, Frankfurt, Germany) cells in LB or M9 (to obtain ^15N- and ^13C,^15N-labeled polypeptides) media according to the protocol described in [33, 36]. For protein purification, bacterial cell pellets were resuspended in lysis buffer (50 mM Tris-HCl pH = 7.5, 100 mM NaCl, 5% glycerol, 5 mM PIC (protease inhibitor cocktail)) and lysed via sonication (TT13 Sonotrode, 40% amplitude, for 6 × 1 min with a 0.5/0.5-s pulse). Lysates were centrifuged for 45 min at 17,000× g at 4 °C. Supernatants were loaded onto a His Trap Fast Flow 5 mL column (GE Healthcare, München, Germany) equilibrated in loading buffer (50 mM Tris-HCl pH = 8.0, 250 mM NaCl, 1% glycerol, 20 mM imidazole). The column was washed with loading buffer for 5–10 CV and protein was eluted with elution buffer (50 mM Tris-HCl pH = 8, 250 mM NaCl, 1% glycerol, 400 mM imidazole). Simultaneous TEV cleavage (1 mg TEV protease was added to 100 mg peptides/proteins) and buffer exchange to loading buffer via dialysis was performed over night at 4 °C. After reverse IMAC, proteins were concentrated with conical concentrators (Millipore Merck, Darmstadt, Germany) and loaded on a Superdex 10/60 75 or 200 column (GE Healthcare, München, Germany) for further purification and equilibration with ITC/NMR buffer (25 mM HEPES pH = 7.5, 100 mM NaCl). For structural NMR spectroscopy, buffer containing 50 mM Tris-HCl pH = 7.5, 100 mM NaCl was used. Prior to NMR experiments, TCEP and protease inhibitors cocktail were added to the samples to final concentrations 1 and 5 mM, respectively. Purified peptides and protein were concentrated and stored at −80 °C. The protein and peptide concentrations were calculated from the UV absorption at 280 nm by Nanodrop spectrophotometer (Thermo Scientific, Langenselbold, Germany).
All ITC experiments were performed at 25 °C using a VP-ITC microcalorimeter (Malvern Panalytical Ltd., Malvern, UK). Peptides in concentration of ~400 µM were titrated into 20–25 µM solutions of corresponding binding partner at a stirring speed of 307 rpm. The raw data were corrected on the dilution heat of peptides obtained in independent experiment (titration of the peptide in syringe into the ITC/NMR buffer in the measuring cell). Pre-titration delay was set to 180 s, interval between titration steps was experimentally adjusted to avoid kinetic contribution to the observed heat effects and set to 200 s. A single ITC profile was collected for each type of interaction. The ITC data were analyzed based on a “one-site” binding model with MicroCal ITC software implemented in Origin 7.0.

GABARAPL2: GABARAPL2, residues 3–116
effect of GABARAPL2 on UFC1~UFM1 conjugation (UFC1 [1]): could efficiently prohibit the UFC1~UFM1 conjugation

GAMEDSGESLEDLMAKMKNM [R3^388–404]
Kd (UFC1 [2]): 10 µM

GAMGPVPDLPEGITVAYTIPKKQEDSVTELTVEDSGESLEDLMAKMKNM [R2-R3^359–404]
Kd (UFC1 [2]): 2.7 µM

— publication PMC8304084, “A Concerted Action of UBA5 C-Terminal Unstructured Regions Is Important for Transfer of Activated UFM1 to UFC1” (International Journal of Molecular Sciences, 2021)
